# Test results as given in ChEMBL document CHEMBL3352377, “Discovery of selective and orally bioavailable protein kinase Cθ (PKCθ) inhibitors from a fragment hit” (J Med Chem, 2015).
# How the values were obtained:
# [1] = Permeability from apical to basolateral side in MDCK2-MDR1 cells at pH 7.4; format: ADME, cell-based, Canis lupus familiaris, MDCK-II; details: dog, MDCK-MDR1, pH 7.4; read-out: permeability
# [2] = target: Protein kinase C alpha type (Homo sapiens, UniProt P17252)
# [3] = Plasma concentration in concanavalin A-induced Balb/c mouse at 30 mg/kg, po dosed 2 hrs before concanavalin A challenge; format: ADME, organism-based; design: dose 30 mg/kg, route oral
# [4] = Half life in mouse at 3 mg/kg, iv or 10 mg/kg, po; format: ADME, organism-based; details: in vivo
# [5] = Half life in rat at 1 mg/kg, iv or 3 mg/kg, po; format: ADME, organism-based; details: in vivo
# [6] = Cmax in mouse at 3 mg/kg, iv or 10 mg/kg, po; format: ADME, organism-based; details: in vivo
# [7] = Plasma concentration in concanavalin A-induced Balb/c mouse at 1 mg/kg, po dosed 2 hrs before concanavalin A challenge; format: ADME, organism-based; design: dose 1 mg/kg, route oral
# Mus musculus [8] = test: Reduction in paw swelling in DBA/J mouse model of glucose 6-phosphate isomerase-induced athritis at 10 mg/kg, po dosed twice daily from day 1 to day 17; format: functional
# [9] = AUC in rat at 1 mg/kg, iv or 3 mg/kg, po; format: ADME, organism-based; details: plasma
# [10] = Cmax in rat at 1 mg/kg, iv or 3 mg/kg, po; format: ADME, organism-based; details: in vivo
# [11] = Plasma clearance in rat at 1 mg/kg, iv or 3 mg/kg, po; format: ADME, organism-based
# [12] = Plasma clearance in mouse at 3 mg/kg, iv or 10 mg/kg, po; format: ADME, organism-based
# Mus musculus [13] = test: Reduction in paw swelling in DBA/J mouse model of glucose 6-phosphate isomerase-induced athritis at 30 mg/kg, po dosed twice daily from day 1 to day 17; format: functional
# cells = details: Homo sapiens, T-Blast, 24 h
# Description: Inhibition of anti-CD3/anti-CD28 antibody-induced IL2 production in human T-Blast cells after 24 hrs
# [14] = Oral bioavailability in rat at 3 mg/kg; format: ADME, organism-based; details: in vivo
# [15] = target: Voltage-gated inwardly rectifying potassium channel KCNH2 (Homo sapiens, UniProt Q12809); test: Inhibition of human ERG
# Voltage-gated inwardly rectifying potassium channel KCNH2, sequence (Q12809 whole entry): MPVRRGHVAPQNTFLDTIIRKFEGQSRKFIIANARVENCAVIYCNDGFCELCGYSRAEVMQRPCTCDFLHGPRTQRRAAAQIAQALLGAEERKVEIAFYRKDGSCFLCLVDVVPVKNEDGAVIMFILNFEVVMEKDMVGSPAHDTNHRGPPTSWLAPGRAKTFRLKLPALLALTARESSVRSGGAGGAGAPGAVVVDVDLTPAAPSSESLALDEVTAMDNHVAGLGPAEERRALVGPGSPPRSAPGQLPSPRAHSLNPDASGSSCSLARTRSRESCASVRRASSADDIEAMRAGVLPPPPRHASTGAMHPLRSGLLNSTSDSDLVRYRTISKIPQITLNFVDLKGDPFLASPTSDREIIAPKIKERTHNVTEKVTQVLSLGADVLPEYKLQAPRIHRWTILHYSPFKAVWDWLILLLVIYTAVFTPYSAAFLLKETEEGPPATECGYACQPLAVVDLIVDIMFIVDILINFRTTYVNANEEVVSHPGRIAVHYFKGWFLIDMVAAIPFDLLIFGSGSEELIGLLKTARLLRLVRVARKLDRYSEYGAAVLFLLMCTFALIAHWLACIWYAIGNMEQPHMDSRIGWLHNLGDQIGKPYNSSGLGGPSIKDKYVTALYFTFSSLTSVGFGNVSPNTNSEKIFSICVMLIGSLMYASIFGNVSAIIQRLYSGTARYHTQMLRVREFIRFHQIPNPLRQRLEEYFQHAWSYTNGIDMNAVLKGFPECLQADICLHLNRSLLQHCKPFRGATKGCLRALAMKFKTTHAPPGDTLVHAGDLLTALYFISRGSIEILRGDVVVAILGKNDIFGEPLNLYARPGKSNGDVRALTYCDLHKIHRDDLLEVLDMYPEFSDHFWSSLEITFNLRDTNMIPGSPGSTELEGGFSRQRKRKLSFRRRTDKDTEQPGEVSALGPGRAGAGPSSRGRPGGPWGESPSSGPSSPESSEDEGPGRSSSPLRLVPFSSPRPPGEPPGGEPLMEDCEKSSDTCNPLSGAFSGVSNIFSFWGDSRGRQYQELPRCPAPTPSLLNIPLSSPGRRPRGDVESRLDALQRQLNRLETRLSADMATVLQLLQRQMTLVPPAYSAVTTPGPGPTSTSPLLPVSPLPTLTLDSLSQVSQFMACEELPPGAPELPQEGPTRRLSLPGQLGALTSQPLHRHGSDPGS
# [16] = AUC in mouse at 3 mg/kg, iv or 10 mg/kg, po; format: ADME, organism-based; details: plasma
# [17] = Unbound intrinsic clearance in rat microsomes; format: ADME, Microsome
# [18] = Plasma concentration in concanavalin A-induced Balb/c mouse at 100 mg/kg, po dosed 2 hrs before concanavalin A challenge; format: ADME, organism-based; design: dose 100 mg/kg, route oral
# [19] = AUC (0 to t) in DBA/J mouse model of glucose 6-phosphate isomerase-induced athritis at 30 mg/kg, po dosed twice daily from day 1 to day 17; format: ADME, organism-based; design: dose 30 mg/kg, route oral; details: in vivo
# [20] = Plasma concentration in concanavalin A-induced Balb/c mouse at 3 mg/kg, po dosed 2 hrs before concanavalin A challenge; format: ADME, organism-based; design: dose 3 mg/kg, route oral
# [21] = Plasma concentration in concanavalin A-induced Balb/c mouse at 10 mg/kg, po dosed 2 hrs before concanavalin A challenge; format: ADME, organism-based; design: dose 10 mg/kg, route oral
# [22] = Unbound intrinsic clearance in human microsomes; format: ADME, Microsome
# [23] = Oral bioavailability in mouse at 10 mg/kg; format: ADME, organism-based; details: in vivo
# [24] = AUC (0 to t) in DBA/J mouse model of glucose 6-phosphate isomerase-induced athritis at 10 mg/kg, po dosed twice daily from day 1 to day 17; format: ADME, organism-based; design: dose 10 mg/kg, route oral; details: in vivo
# Mus musculus [25] = test: Toxicity in DBA/J mouse model of glucose 6-phosphate isomerase-induced athritis at 100 mg/kg, po dosed twice daily for >10 days; format: organism-based; design: dose 100 mg/kg, route oral; details: in vivo, 240 h
# [26] = Fraction unbound in mouse plasma; format: ADME, cell-free
# [27] = Unbound intrinsic clearance in mouse microsomes; format: ADME, Microsome
# Rattus norvegicus [28] = test: Reduction in heart rate in rat cardiovascular model at 3 to 30 mg/kg dosed over 30 mins infusions; details: in vivo, iv, 0.5 h
# Canis familiaris [29] = test: Reduction in dP/dtma in anesthetized dog cardiovascular model at plasma concentration of 1.7 uM; format: ADME, organism-based, Canis lupus familiaris; design: scale not given: the % may be the effect or the level left; details: in vivo
# Canis familiaris [30] = test: Reduction in mean arterial pressure in anesthetized dog cardiovascular model in presence of hexamethonium; details: in vivo
# Canis familiaris [31] = test: Reduction in dP/dtmax in anesthetized dog cardiovascular model at plasma concentration of 7.7 uM in presence of hexamethonium; format: ADME, organism-based, Canis lupus familiaris; design: scale not given: the % may be the effect or the level left; details: in vivo
# [32] = target: T1, Protein kinase C epsilon type (Homo sapiens, UniProt Q02156); test: Inhibition of human recombinant PKCepsilon expressed in Sf21 cells using Bio-cdc peptide substrate and ATP after 60 mins by time-resolved fluorescence in-vitro kinase assay
# T1 sequence (Q02156 whole entry): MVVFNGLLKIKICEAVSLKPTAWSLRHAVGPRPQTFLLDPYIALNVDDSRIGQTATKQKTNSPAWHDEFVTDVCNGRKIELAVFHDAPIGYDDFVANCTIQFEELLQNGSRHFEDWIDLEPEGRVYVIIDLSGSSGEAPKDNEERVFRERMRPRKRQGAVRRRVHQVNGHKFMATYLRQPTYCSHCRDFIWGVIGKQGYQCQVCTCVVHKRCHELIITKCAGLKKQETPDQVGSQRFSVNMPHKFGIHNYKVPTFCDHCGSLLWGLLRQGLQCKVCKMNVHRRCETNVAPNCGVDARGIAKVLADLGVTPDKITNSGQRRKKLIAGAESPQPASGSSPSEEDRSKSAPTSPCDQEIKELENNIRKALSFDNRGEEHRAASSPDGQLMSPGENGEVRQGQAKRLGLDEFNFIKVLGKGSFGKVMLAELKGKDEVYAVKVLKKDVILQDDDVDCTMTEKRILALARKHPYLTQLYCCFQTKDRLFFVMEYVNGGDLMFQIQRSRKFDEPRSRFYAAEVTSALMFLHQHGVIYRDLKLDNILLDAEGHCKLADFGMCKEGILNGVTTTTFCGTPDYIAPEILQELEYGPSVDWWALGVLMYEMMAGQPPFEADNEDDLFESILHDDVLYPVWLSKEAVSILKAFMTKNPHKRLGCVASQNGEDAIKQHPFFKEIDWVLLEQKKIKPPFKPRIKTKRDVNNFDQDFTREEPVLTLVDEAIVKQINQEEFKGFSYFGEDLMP
# [33] = Inhibition of human recombinant […] expressed in Sf21 cells using Bio-cdc peptide substrate and ATP after 60 mins by time-resolved fluorescence in-vitro kinase assay
# Canis familiaris [34] = test: Reduction in mean arterial pressure in anesthetized dog cardiovascular model at plasma concentration of 7.7 uM in presence of hexamethonium; format: ADME, organism-based, Canis lupus familiaris; details: in vivo
# Canis familiaris [35] = test: Reduction in mean arterial pressure in anesthetized dog cardiovascular model at plasma concentration of 1.7 uM; format: ADME, organism-based, Canis lupus familiaris; details: in vivo
# [36] = target: Protein kinase C delta type (Homo sapiens, UniProt Q05655); test: Inhibition of human recombinant PKCdelta expressed in Sf21 cells using Bio-cdc peptide substrate and ATP after 60 mins by time-resolved fluorescence in-vitro kinase assay
# Protein kinase C delta type, sequence (Q05655 whole entry): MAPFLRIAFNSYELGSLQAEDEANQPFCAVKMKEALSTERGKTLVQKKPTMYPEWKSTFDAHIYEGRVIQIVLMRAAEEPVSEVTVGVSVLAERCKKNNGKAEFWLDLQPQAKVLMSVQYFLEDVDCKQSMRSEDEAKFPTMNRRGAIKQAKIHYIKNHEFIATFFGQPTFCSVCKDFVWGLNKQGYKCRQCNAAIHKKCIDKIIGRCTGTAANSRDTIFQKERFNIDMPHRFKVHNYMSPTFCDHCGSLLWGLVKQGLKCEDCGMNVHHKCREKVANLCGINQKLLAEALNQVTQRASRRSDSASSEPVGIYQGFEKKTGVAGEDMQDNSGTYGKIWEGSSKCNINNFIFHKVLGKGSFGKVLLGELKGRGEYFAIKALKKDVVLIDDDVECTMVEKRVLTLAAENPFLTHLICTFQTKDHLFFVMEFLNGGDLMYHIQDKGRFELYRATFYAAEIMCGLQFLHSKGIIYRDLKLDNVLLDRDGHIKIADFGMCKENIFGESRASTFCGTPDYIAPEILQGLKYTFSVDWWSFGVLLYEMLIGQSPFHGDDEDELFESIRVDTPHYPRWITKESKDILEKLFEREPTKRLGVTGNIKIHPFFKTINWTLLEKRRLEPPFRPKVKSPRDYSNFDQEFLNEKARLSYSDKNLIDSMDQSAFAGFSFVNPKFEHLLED
# [37] = target: T2, Protein kinase C zeta type (Homo sapiens, UniProt Q05513); test: Inhibition of human recombinant PKCzeta expressed in Sf21 cells using Bio-cdc peptide substrate and ATP after 60 mins by time-resolved fluorescence in-vitro kinase assay
# T2 sequence (Q05513 whole entry): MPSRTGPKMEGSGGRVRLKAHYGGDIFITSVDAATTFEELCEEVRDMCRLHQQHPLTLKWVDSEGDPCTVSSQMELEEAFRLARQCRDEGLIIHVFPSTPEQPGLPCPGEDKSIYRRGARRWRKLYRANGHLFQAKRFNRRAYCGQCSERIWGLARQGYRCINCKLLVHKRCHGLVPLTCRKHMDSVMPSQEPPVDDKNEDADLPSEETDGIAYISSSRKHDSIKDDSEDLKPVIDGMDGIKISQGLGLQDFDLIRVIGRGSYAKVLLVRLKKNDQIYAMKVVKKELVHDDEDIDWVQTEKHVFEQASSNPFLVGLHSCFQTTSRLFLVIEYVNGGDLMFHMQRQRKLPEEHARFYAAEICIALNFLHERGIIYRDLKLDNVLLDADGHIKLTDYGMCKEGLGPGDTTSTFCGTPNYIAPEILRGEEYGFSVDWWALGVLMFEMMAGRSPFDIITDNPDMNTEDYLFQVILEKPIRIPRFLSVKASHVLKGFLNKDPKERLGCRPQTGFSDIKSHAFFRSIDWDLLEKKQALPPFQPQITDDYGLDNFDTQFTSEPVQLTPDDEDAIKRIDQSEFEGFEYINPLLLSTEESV
# Canis familiaris [38] = test: Increase in dP/dtma in anesthetized dog cardiovascular model at plasma concentration of 7.7 uM; details: in vivo
# Rattus norvegicus [39] = test: Effect on left ventricular dP/dt50 in rat cardiovascular model at 3 to 30 mg/kg dosed over 30 mins infusions; details: in vivo, iv, 0.5 h
# Canis familiaris [40] = test: Reduction in mean arterial pressure in anesthetized dog cardiovascular model at plasma concentration of 6.9 uM; format: ADME, organism-based, Canis lupus familiaris; details: in vivo
# [41] = target: Protein kinase C beta type (Homo sapiens, UniProt P05771); test: Inhibition of human recombinant PKCbeta expressed in Sf21 cells using Bio-cdc peptide substrate and ATP after 60 mins by time-resolved fluorescence in-vitro kinase assay
# Protein kinase C beta type, sequence (P05771 whole entry): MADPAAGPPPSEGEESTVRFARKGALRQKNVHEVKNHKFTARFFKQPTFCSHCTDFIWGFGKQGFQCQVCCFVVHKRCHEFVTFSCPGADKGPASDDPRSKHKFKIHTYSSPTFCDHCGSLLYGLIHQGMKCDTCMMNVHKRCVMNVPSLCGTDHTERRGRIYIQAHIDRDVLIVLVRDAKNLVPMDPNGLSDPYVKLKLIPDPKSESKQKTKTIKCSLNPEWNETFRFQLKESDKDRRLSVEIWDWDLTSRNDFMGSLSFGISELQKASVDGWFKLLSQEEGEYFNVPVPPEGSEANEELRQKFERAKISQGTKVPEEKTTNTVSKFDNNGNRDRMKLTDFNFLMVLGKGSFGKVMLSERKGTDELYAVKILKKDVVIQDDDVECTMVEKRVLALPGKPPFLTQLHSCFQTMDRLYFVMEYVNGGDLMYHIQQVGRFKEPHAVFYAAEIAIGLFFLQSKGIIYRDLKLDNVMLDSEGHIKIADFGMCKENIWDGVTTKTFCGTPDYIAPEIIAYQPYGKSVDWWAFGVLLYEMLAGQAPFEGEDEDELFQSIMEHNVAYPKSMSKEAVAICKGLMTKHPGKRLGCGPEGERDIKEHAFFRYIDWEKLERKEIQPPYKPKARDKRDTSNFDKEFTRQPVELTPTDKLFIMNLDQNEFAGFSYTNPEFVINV
# [42] = target: Protein kinase C gamma type (Homo sapiens, UniProt P05129); test: Inhibition of human recombinant PKCgamma expressed in Sf21 cells using Bio-cdc peptide substrate and ATP after 60 mins by time-resolved fluorescence in-vitro kinase assay
# Canis familiaris [43] = test: Reduction in dP/dtmax in anesthetized dog cardiovascular model at plasma concentration of 2.2 uM in presence of hexamethonium; format: ADME, organism-based, Canis lupus familiaris; design: scale not given: the % may be the effect or the level left; details: in vivo
# Rattus norvegicus [44] = test: Reduction in mean arterial pressure in rat cardiovascular model at 3 to 30 mg/kg dosed over 30 mins infusions; details: in vivo, iv, 0.5 h
# Rattus norvegicus [45] = test: Increase in left ventricular dP/dt50 in rat cardiovascular model at plasma concentration of 5.8 uM dosed over 30 mins infusions; details: in vivo, iv, 0.5 h
# Rattus norvegicus [46] = test: Increase in left ventricular dP/dt50 in rat cardiovascular model at plasma concentration of 1.3 uM dosed over 30 mins infusions; details: in vivo, iv, 0.5 h
# Rattus norvegicus [47] = test: Increase in left ventricular dP/dt50 in rat cardiovascular model at plasma concentration of 9.7 uM dosed over 30 mins infusions; details: in vivo, iv, 0.5 h
Compound,Papp A→B [1] [×10⁻⁶ cm/s],IC50 [2] [µM],half-life [4] [h],half-life [5] [h],Cmax [6] [ng/mL],AUC [9] [ng·h/mL],Cmax [10] [ng/mL],clearance [11] [mL/min/kg],clearance [12] [mL/min/kg],IC50 (cells) [µM],bioavailability [14] [%],IC50 [15] [µM],AUC [16] [ng·h/mL],CL free [17] [mL/min/kg],CL free [22] [mL/min/kg],bioavailability [23] [%],CL free [27] [mL/min/kg],other results
C[C@@H]1C(=O)NN=C2COc3cc(C(F)(F)F)c(NC4(C)CNC4)cc3N21,1.5,1.7,3.1,4.7,846,782,160,45,25,0.12,74,> 30,9260,< 55,< 33,108,< 95,concentration at 2 h [3]: 900 nM; concentration at 2 h [7]: 37 nM; inhibition in vivo at 10 mg/kg (Mus musculus [8]): 62%; inhibition in vivo at 30 mg/kg (Mus musculus [13]): 100%; concentration at 2 h [18]: 2500 nM; AUC(0-t) [19]: 15100 ng·h/mL; concentration at 2 h [20]: 110 nM; concentration at 2 h [21]: 310 nM; AUC(0-t) [24]: 4500 ng·h/mL; Activity (Mus musculus [25]): Toxic; fraction unbound [26]: 0.27
C[C@@H]1C(=O)NN=C2COc3cc(C(F)(F)F)c(NC4CNC4)cc3N21,0.44,4.6,2.7,5.5,342,409,80,35,96.7,0.22,28,> 30,1730,< 78.3,80,85,< 138,Activity (Rattus norvegicus [28]): Toxic; Activity (Canis familiaris [29]): 3%; Activity (Canis familiaris [30]): -3 mmHg; Activity (Canis familiaris [31]): -7%; IC50 [32]: 0.14 µM; IC50 [33]: 3.9 µM; Activity (Canis familiaris [34]): -12 mmHg; Activity (Canis familiaris [35]): 1 mmHg; IC50 [36]: 0.47 µM; IC50 [37]: 33 µM; Activity (Canis familiaris [38]): 34%; Activity (Rattus norvegicus [39]): Non-toxic; Activity (Canis familiaris [40]): 3 mmHg; IC50 [41]: 1.5 µM; IC50 [42]: 7.8 µM; Activity (Canis familiaris [43]): -4%; Activity (Rattus norvegicus [44]): Toxic
CN1CCN(c2nc(C3=C(c4c[nH]c5ccccc45)C(=O)NC3=O)c3ccccc3n2)CC1 [SOTRASTAURIN],,,,,,,,,,,,,,,,,,Activity (Rattus norvegicus [45]): 35%; Activity (Rattus norvegicus [46]): 14%; Activity (Rattus norvegicus [47]): 76%
